Data: patent US10131652B2, “Pyrimidinyloxy benzene derivatives as herbicides” (E. I. DU PONT DE NEMOURS AND COMPANY, priority 2014, dated 2018)

Tests used:
Type in all cases: in vivo
[1] = tested on: ragweed (common ragweed, Ambrosia elatior); assay: Test D pre-/postemergence plant response
Summary of the method: (§1)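 Preemergence: seeds in loam/sand blend treated with test chemicals in non-phytotoxic solvent with surfactant; postemergence: plants at 2–18 cm (1- to 4-leaf stage) in peat-based medium sprayed likewise. Greenhouse 13 to 15 days, then visual rating vs controls, 0 (no effect) to 100 (complete control).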

[2] = tested on: yellow nutsedge (Cyperus esculentus); assay: Test D pre-/postemergence plant response
Summary of the method: as §1

[3] = tested on: oilseed rape (Brassica napus); assay: Test D pre-/postemergence plant response
Summary of the method: as §1

[4] = tested on: johnsongrass (Sorghum halepense); assay: Test D pre-/postemergence plant response
Summary of the method: as §1

[5] = tested on: galium (catchweed bedstraw, Galium aparine); assay: Test D pre-/postemergence plant response
Summary of the method: as §1

[6] = tested on: winter wheat (Triticum aestivum); assay: Test D pre-/postemergence plant response
Summary of the method: as §1

[7] = tested on: small-flower umbrella sedge (Cyperus difformis); assay: Test C flooded paddy test plant response; conditions: Flood, 250 g ai/ha; scale of 0 to 100 where 0 is no effect and 100 is complete control; 13 to 15 days
Summary of the method: (§2)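 Greenhouse paddy assay, 13–15 days. Treatment into 3 cm floodwater over 2-leaf plants; visual 0–100 rating against controls.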

[8] = tested on: barnyardgrass (Echinochloa crus-galli); assay: Test C flooded paddy test plant response; conditions: Flood, 250 g ai/ha; scale of 0 to 100 where 0 is no effect and 100 is complete control; 13 to 15 days
Summary of the method: as §2

[9] = tested on: ducksalad (Heteranthera limosa); assay: Test C flooded paddy test plant response; conditions: Flood, 250 g ai/ha; scale of 0 to 100 where 0 is no effect and 100 is complete control; 13 to 15 days
Summary of the method: as §2

rice (Oryza sativa) = assay: Test C flooded paddy test plant response; conditions: Flood, 250 g ai/ha; scale of 0 to 100 where 0 is no effect and 100 is complete control; 13 to 15 days
Summary of the method: as §2

[10] = tested on: pigweed (Amaranthus retroflexus); assay: Test B pre-/postemergence plant response; conditions: 1000 g ai/ha, 0 to 100 scale (0 no effect, 100 complete control)
Summary of the method: (§3)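 Greenhouse pots, loam/sand soil; compound formulated with surfactant in non-phytotoxic solvent. Preemergence soil spray and postemergence spray at 1–2 leaf stage run simultaneously. Visual injury, 0–100, about 10 days post-treatment.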

[11] = tested on: giant foxtail (Setaria faberii); assay: Test B pre-/postemergence plant response; conditions: 1000 g ai/ha, 0 to 100 scale (0 no effect, 100 complete control)
Summary of the method: as §3

[12] = tested on: barnyardgrass (Echinochloa crus-galli); assay: Test B pre-/postemergence plant response; conditions: 1000 g ai/ha, 0 to 100 scale (0 no effect, 100 complete control)
Summary of the method: as §3

[13] = tested on: wheat (Triticum aestivum); assay: Test B pre-/postemergence plant response; conditions: Postemergence, 1000 g ai/ha; 0 to 100 scale (0 no effect, 100 complete control)
Summary of the method: as §3

corn (Zea mays) = assay: Test B pre-/postemergence plant response; conditions: Postemergence, 1000 g ai/ha; 0 to 100 scale (0 no effect, 100 complete control)
Summary of the method: as §3

[14] = Postemergence, 31 g ai/ha, scale 0 to 100 (0 no effect, 100 complete control)
[15] = Postemergence, 62 g ai/ha, scale 0 to 100, 0 no effect, 100 complete control
[16] = Postemergence, 125 g ai/ha, scale 0 to 100, 0 no effect, 100 complete control
[17] = Postemergence, 16 g ai/ha, scale 0 to 100 (0 no effect, 100 complete control)
[18] = Preemergence, 16 g ai/ha, scale 0 to 100 (0 no effect, 100 complete control)
[19] = Preemergence, 31 g ai/ha, scale 0 to 100 (0 no effect, 100 complete control)
[20] = Preemergence, 62 g ai/ha, scale 0 to 100 (0 no effect, 100 complete control)

SMILES: FCc1cc(-c2c(Br)cccc2Oc2ncc(Cl)cn2)no1 [Compound 191]
- Plant response rating (scale 0 to 100), Ragweed ([1]; Postemergence, 16 g ai/ha): 30
- Ragweed plant response rating [1, 14]: 40
- Ragweed plant response rating [1, 15]: 60
- Plant response rating, Ragweed [1, 16]: 65
- Plant response rating (scale 0 to 100), Nutsedge, Yellow ([2]; Postemergence, 16 g ai/ha): 0
- Nutsedge, Yellow plant response rating [2, 14]: 5
- Nutsedge, Yellow plant response rating [2, 15]: 5
- Plant response rating, Nutsedge, Yellow [2, 16]: 10
- Plant response rating (scale 0 to 100), Oilseed Rape ([3]; Postemergence, 16 g ai/ha): 0
- Oilseed Rape plant response rating [3, 14]: 40
- Oilseed Rape plant response rating [3, 15]: 60
- Plant response rating, Oilseed Rape [3, 16]: 90
- Plant response rating (scale 0 to 100), Johnsongrass ([4]; Postemergence, 16 g ai/ha): 5
- Johnsongrass plant response rating [4, 14]: 5
- Plant response rating, Johnsongrass [4, 15]: 5
- Plant response rating, Johnsongrass [4, 16]: 5
- Plant response rating (scale 0 to 100), Galium ([5]; Postemergence, 16 g ai/ha): 40
- Galium plant response rating [5, 14]: 70
- Plant response rating, Galium [5, 15]: 85
- Plant response rating, Galium [5, 16]: 85
- Plant response rating (scale 0 to 100), Wheat ([6]; Postemergence, 16 g ai/ha): 0
- Wheat plant response rating [6, 14]: 0
- Wheat plant response rating [6, 15]: 0
- Plant response rating, Wheat [6, 16]: 0
- Sedge, Umbrella plant response rating [7]: 85
- Barnyardgrass plant response rating [8]: 20
- Ducksalad plant response rating [9]: 80
- Rice plant response rating (rice (Oryza sativa)): 0
- Plant response rating, Pigweed ([10]; Postemergence): 100
- Plant response rating, Pigweed ([10]; Preemergence): 100
- Plant response rating, Foxtail, Giant ([11]; Postemergence): 100
- Plant response rating, Foxtail, Giant ([11]; Preemergence): 100
- Plant response rating, Barnyardgrass ([12]; Postemergence): 100
- Plant response rating, Barnyardgrass ([12]; Preemergence): 100
- Plant response rating, Wheat [13]: 30
- Plant response rating, Corn (corn (Zea mays)): 60

SMILES: FCc1cc(-c2c(F)cccc2Oc2ncc(Cl)cn2)no1 [Compound 57]
- Ragweed plant response rating [1, 17]: 20
- Ragweed plant response rating [1, 14]: 50
- Plant response rating, Ragweed [1, 15]: 60
- Plant response rating, Ragweed [1, 16]: 98
- Plant response rating (scale 0 to 100), Ragweed ([1]; Preemergence, 125 g ai/ha): 100
- Plant response rating, Ragweed [1, 18]: 25
- Plant response rating, Ragweed [1, 19]: 35
- Plant response rating, Ragweed [1, 20]: 100
- Nutsedge, Yellow plant response rating [2, 17]: 0
- Nutsedge, Yellow plant response rating [2, 14]: 5
- Plant response rating, Nutsedge, Yellow [2, 15]: 5
- Plant response rating, Nutsedge, Yellow [2, 16]: 5
- Plant response rating (scale 0 to 100), Nutsedge, Yellow ([2]; Preemergence, 125 g ai/ha): 20
- Plant response rating, Nutsedge, Yellow [2, 18]: 0
- Plant response rating, Nutsedge, Yellow [2, 19]: 10
- Plant response rating, Nutsedge, Yellow [2, 20]: 20
- Oilseed Rape plant response rating [3, 17]: 30
- Oilseed Rape plant response rating [3, 14]: 55
- Plant response rating, Oilseed Rape [3, 15]: 75
- Plant response rating, Oilseed Rape [3, 16]: 90
- Plant response rating (scale 0 to 100), Oilseed Rape ([3]; Preemergence, 125 g ai/ha): 100
- Plant response rating, Oilseed Rape [3, 18]: 100
- Plant response rating, Oilseed Rape [3, 19]: 100
- Plant response rating, Oilseed Rape [3, 20]: 100
- Johnsongrass plant response rating [4, 17]: 0
- Johnsongrass plant response rating [4, 14]: 0
- Plant response rating, Johnsongrass [4, 15]: 5
- Plant response rating, Johnsongrass [4, 16]: 5
- Plant response rating (scale 0 to 100), Johnsongrass ([4]; Preemergence, 125 g ai/ha): 80
- Plant response rating, Johnsongrass [4, 18]: 0
- Plant response rating, Johnsongrass [4, 19]: 10
- Plant response rating, Johnsongrass [4, 20]: 40
- Galium plant response rating [5, 17]: 40
- Galium plant response rating [5, 14]: 50
- Plant response rating, Galium [5, 15]: 65
- Plant response rating, Galium [5, 16]: 95
- Plant response rating (scale 0 to 100), Galium ([5]; Preemergence, 125 g ai/ha): 90
- Plant response rating, Galium [5, 18]: 80
- Plant response rating, Galium [5, 19]: 70
- Plant response rating, Galium [5, 20]: 90
- Wheat plant response rating [6, 17]: 0
- Wheat plant response rating [6, 14]: 5
- Plant response rating, Wheat [6, 15]: 15
- Plant response rating, Wheat [6, 16]: 20
- Plant response rating (scale 0 to 100), Wheat ([6]; Preemergence, 125 g ai/ha): 5
- Plant response rating, Wheat [6, 18]: 0
- Plant response rating, Wheat [6, 19]: 0
- Plant response rating, Wheat [6, 20]: 0
- Sedge, Umbrella plant response rating [7]: 75
- Barnyardgrass plant response rating [8]: 0
- Ducksalad plant response rating [9]: 90
- Rice plant response rating (rice (Oryza sativa)): 0
- Plant response rating, Pigweed ([10]; Postemergence): 100
- Plant response rating, Pigweed ([10]; Preemergence): 90
- Plant response rating, Foxtail, Giant ([11]; Postemergence): 100
- Plant response rating, Foxtail, Giant ([11]; Preemergence): 100
- Plant response rating, Barnyardgrass ([12]; Postemergence): 100
- Plant response rating, Barnyardgrass ([12]; Preemergence): 100
- Plant response rating, Wheat [13]: 90
- Plant response rating, Corn (corn (Zea mays)): 90
